# Reference: patent publication US7074789B2, “Kinase inhibitors” (Amgen Inc., priority 1999, dated 2006)
# Assays:
# Assay type in all cases: biochemical
# Lyn = target: T1, Lyn (Homo sapiens, UniProt P07948); assay: Kinase inhibition assay (33P transfer), Lyn; settings: Table 6, Lyn-1 kinase inhibition class
# T1 construct: Kinases are expressed as either kinase domains or full length constructs; made in house
# Summary of the method: (§1)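 Recombinant kinase domains or full-length GST- or His-tagged constructs, from E. coli or baculovirus/High Five cells, sometimes with regulatory polypeptides. Transfer of 33P from ATP to plate-bound poly(Glu,Tyr) 4:1 or poly(Arg,Ser) 3:1 counted by liquid scintillation after phosphoric acid wash; IC50 is the concentration halving incorporation.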
# FGFR1 = target: T2, FGFR1 (Homo sapiens, UniProt P11362); assay: Kinase inhibition assay (33P transfer), FGFR1; settings: read-out: FGFR1-1
# T2 construct: Kinases are expressed as either kinase domains or full length constructs; made in house
# T2 sequence (P11362 22-822, species assumed): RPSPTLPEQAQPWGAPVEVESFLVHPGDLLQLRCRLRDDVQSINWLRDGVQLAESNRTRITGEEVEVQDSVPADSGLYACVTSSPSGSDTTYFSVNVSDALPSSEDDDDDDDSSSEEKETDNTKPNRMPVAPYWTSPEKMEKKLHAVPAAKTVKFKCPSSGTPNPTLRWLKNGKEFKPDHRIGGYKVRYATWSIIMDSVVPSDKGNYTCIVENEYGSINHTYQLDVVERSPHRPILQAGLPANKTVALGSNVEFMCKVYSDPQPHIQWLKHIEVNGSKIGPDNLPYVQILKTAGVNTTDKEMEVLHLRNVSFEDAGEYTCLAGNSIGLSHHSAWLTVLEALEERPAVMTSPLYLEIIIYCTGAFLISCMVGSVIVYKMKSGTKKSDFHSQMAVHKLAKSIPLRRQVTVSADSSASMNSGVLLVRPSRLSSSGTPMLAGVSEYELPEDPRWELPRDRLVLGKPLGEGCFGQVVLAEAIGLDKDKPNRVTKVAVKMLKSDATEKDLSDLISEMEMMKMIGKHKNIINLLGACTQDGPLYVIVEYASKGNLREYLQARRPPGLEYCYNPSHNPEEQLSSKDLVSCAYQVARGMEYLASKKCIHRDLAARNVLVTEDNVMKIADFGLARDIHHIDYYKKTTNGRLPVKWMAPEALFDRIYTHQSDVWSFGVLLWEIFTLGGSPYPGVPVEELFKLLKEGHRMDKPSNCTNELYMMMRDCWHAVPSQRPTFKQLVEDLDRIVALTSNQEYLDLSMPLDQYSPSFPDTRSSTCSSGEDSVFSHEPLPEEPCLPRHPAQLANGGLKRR
# IGFR-1 = target: T3, IGFR-1 (Homo sapiens, UniProt P08069); assay: Kinase inhibition assay, IGFR-1 (Table 2); settings: Table 2, kinase inhibition class
# T3 construct: Kinases are expressed as either kinase domains or full length constructs; made in house
# Fyn = target: T4, Fyn (Homo sapiens, UniProt P06241); assay: Kinase inhibition assay (33P transfer), Fyn; settings: read-out: Fyn-1
# T4 construct: Kinases are expressed as either kinase domains or full length constructs; made in house
# Summary of the method: as §1
# Hck-1 = target: T5, Hck-1 (Homo sapiens, UniProt P08631); assay: Kinase inhibition assay (33P transfer), Hck; settings: Table 6, Hck-1 kinase inhibition class
# T5 construct: Kinases are expressed as either kinase domains or full length constructs; made in house
# T5 sequence (P08631 whole entry, the tested form may be a part): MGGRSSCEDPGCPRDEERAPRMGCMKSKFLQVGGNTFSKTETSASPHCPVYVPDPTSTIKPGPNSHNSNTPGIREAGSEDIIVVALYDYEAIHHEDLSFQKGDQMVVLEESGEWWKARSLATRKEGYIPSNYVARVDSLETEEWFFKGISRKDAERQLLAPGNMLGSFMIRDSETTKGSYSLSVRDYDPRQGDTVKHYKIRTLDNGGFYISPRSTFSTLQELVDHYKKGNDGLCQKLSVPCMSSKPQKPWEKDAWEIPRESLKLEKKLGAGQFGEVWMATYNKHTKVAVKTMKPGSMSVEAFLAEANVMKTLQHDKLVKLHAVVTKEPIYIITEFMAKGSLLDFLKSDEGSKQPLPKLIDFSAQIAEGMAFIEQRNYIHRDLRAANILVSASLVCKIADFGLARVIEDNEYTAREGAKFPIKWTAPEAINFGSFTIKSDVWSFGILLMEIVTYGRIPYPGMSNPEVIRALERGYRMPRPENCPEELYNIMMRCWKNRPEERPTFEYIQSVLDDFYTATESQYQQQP
# PDGFRB = target: T6, PDGFRB (Homo sapiens, UniProt P09619); assay: Kinase inhibition assay (33P transfer), PDGFRB; settings: read-out: PDGFRB-1
# T6 construct: Kinases are expressed as either kinase domains or full length constructs; made in house
# Src = target: T7, Src (Homo sapiens, UniProt P12931); assay: Kinase inhibition assay (33P transfer), Src; settings: Table 6, Src-1 kinase inhibition class
# T7 construct: Kinases are expressed as either kinase domains or full length constructs; made in house
# T7 sequence (P12931 whole entry, species assumed, the tested form may be a part): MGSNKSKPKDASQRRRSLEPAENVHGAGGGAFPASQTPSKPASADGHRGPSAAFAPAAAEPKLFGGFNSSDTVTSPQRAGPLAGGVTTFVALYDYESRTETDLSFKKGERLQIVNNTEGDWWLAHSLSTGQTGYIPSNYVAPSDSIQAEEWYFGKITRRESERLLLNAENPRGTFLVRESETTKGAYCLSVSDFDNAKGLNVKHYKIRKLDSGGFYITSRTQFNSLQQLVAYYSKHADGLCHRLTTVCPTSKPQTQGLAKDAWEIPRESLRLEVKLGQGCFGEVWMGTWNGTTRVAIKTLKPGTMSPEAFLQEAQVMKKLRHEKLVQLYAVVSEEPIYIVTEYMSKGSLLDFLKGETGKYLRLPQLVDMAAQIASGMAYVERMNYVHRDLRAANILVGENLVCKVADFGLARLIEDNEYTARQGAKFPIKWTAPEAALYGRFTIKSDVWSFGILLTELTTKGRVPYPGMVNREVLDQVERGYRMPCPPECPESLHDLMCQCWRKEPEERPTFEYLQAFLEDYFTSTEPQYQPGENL
# Summary of the method: as §1
# Itk = target: T8, Itk (Homo sapiens, UniProt Q08881); assay: Kinase inhibition assay (33P transfer), Itk; settings: read-out: Itk-1
# T8 construct: Kinases are expressed as either kinase domains or full length constructs; made in house
# T8 sequence (Q08881 1-620): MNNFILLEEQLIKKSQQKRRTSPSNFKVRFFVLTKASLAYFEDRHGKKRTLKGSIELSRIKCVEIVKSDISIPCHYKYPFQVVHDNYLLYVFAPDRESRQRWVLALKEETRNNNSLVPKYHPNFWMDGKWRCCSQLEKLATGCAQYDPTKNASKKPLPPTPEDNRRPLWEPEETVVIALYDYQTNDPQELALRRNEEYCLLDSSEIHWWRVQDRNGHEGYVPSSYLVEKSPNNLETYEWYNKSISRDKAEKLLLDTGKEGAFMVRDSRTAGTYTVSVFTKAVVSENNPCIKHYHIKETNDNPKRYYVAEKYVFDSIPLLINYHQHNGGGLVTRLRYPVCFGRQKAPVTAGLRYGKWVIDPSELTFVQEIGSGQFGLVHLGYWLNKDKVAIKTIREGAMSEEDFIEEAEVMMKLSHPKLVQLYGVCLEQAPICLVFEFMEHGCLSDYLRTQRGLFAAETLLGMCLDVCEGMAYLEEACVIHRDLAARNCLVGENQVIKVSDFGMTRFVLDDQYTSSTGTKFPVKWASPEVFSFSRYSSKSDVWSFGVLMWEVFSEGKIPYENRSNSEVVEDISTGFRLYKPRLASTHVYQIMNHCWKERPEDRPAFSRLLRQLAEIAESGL
# Summary of the method: as §1
# Lck = target: T9, Lck (Homo sapiens, UniProt P06239); assay: Kinase inhibition assay (33P transfer), Lck; settings: read-out: Lck-1
# T9 construct: Kinases are expressed as either kinase domains or full length constructs; made in house
# T9 sequence (P06239 whole entry, species assumed, the tested form may be a part): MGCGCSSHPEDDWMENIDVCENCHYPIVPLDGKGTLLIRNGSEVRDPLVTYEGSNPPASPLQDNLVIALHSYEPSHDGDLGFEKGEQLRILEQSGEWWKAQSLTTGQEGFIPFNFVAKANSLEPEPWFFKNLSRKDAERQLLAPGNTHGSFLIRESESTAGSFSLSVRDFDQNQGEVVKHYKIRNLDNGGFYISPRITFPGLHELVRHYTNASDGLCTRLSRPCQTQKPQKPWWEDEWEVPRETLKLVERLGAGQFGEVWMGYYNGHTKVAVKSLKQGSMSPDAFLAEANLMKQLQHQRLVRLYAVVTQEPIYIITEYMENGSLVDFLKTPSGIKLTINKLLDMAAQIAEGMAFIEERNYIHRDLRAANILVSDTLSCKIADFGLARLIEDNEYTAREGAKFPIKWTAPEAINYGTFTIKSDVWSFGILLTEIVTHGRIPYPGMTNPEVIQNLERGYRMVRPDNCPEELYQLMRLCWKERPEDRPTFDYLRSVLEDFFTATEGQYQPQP
# Summary of the method: (§2)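 Filterless plate radiometric format: immobilized poly(Glu,Tyr) 4:1 or poly(Arg,Ser) 3:1, 33P-labelled ATP, tagged recombinant kinase (some with regulatory partners). Incorporated label counted after phosphoric acid wash.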
# ErbB2 = target: T10, ErbB2 (Homo sapiens, UniProt P04626); assay: Kinase inhibition assay (33P transfer), ErbB2; settings: read-out: ErbB2-2
# T10 construct: Kinases are expressed as either kinase domains or full length constructs; made in house
# Summary of the method: as §1
# c-Met = target: T11, c-Met (Homo sapiens, UniProt P08581); assay: Kinase inhibition assay (33P transfer), c-Met; settings: Table 2, kinase inhibition class; read-out: Met-1
# T11 construct: Kinases are expressed as either kinase domains or full length constructs; made in house
# Summary of the method: as §1
# Tek = target: T12, Tek (Homo sapiens, UniProt Q02763); assay: Kinase inhibition assay (33P transfer), Tek; settings: read-out: Tek-1
# T12 construct: Kinases are expressed as either kinase domains or full length constructs; made in house
# Summary of the method: as §1
# AKT = target: T13, AKT (Homo sapiens, UniProt Q9Y243); assay: Kinase inhibition assay (33P transfer), AKT; settings: Table 2, kinase inhibition class; read-out: AKT3-1
# T13 construct: Kinases are expressed as either kinase domains or full length constructs; made in house
# T13 sequence (Q9Y243 whole entry, the tested form may be a part): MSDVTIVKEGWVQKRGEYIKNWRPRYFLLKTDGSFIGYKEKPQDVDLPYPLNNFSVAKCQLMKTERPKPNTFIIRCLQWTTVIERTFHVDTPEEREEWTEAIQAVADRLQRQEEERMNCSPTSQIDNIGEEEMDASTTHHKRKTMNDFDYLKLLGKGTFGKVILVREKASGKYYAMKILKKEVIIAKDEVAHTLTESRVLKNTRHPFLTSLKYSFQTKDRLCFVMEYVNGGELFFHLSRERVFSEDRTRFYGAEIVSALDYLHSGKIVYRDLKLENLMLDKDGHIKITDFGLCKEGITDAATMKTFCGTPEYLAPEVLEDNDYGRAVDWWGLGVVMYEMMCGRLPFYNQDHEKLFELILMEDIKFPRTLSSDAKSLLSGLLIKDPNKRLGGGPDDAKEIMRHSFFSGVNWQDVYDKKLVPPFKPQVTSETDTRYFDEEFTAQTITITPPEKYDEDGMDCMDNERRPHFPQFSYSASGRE
# Summary of the method: as §2
# Zap-70 = target: T14, Zap-70 (Homo sapiens, UniProt P43403); assay: Kinase inhibition assay (33P transfer), Zap-70; settings: read-out: Zap-1
# T14 construct: Kinases are expressed as either kinase domains or full length constructs; made in house
# T14 sequence (P43403 1-619): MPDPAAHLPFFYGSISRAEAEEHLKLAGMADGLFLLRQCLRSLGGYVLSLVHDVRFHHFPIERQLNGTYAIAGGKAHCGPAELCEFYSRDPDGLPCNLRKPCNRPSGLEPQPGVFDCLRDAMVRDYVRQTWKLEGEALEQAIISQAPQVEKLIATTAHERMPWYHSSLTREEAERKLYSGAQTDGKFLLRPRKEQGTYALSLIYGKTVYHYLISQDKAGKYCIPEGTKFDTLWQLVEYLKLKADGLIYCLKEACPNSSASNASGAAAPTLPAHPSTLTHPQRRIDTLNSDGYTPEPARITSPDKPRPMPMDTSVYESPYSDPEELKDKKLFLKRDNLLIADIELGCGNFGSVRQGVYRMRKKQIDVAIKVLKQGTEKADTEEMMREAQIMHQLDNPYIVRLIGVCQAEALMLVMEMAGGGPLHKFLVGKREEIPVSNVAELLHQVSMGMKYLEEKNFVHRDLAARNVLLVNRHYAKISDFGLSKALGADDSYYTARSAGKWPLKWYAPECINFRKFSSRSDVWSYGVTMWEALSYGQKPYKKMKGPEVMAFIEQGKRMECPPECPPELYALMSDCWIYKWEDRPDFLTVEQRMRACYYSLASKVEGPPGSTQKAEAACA
# Summary of the method: as §2
# ErbB4 = target: T15, ErbB4 (Homo sapiens, UniProt Q15303); assay: Kinase inhibition assay (33P transfer), ErbB4; settings: read-out: ErbB4-1
# T15 construct: Kinases are expressed as either kinase domains or full length constructs; made in house
# EGFR = target: T16, EGFR (Homo sapiens, UniProt P00533); assay: Kinase inhibition assay (33P transfer), EGFR; settings: Table 2, kinase inhibition class; read-out: EGFR-1
# T16 construct: Kinases are expressed as either kinase domains or full length constructs; made in house
# Summary of the method: as §1
# Ret-1 = target: T17, Ret-1 (Homo sapiens, UniProt P07949); assay: Kinase inhibition assay (33P transfer), Ret; settings: Table 6, Ret-1 kinase inhibition class
# T17 construct: Kinases are expressed as either kinase domains or full length constructs; made in house
# Flt-1 = target: T18, Flt-1 (Homo sapiens, UniProt P17948); assay: Kinase inhibition assay (33P transfer), Flt-1
# T18 construct: Kinases are expressed as either kinase domains or full length constructs; made in house
# Summary of the method: as §1
# Kdr = target: T19, Kdr (Homo sapiens, UniProt P35968); assay: Kinase inhibition assay (33P transfer), Kdr; settings: read-out: KDR-1
# T19 construct: Kinases are expressed as either kinase domains or full length constructs; made in house
# T19 sequence (P35968 20-1356, species assumed): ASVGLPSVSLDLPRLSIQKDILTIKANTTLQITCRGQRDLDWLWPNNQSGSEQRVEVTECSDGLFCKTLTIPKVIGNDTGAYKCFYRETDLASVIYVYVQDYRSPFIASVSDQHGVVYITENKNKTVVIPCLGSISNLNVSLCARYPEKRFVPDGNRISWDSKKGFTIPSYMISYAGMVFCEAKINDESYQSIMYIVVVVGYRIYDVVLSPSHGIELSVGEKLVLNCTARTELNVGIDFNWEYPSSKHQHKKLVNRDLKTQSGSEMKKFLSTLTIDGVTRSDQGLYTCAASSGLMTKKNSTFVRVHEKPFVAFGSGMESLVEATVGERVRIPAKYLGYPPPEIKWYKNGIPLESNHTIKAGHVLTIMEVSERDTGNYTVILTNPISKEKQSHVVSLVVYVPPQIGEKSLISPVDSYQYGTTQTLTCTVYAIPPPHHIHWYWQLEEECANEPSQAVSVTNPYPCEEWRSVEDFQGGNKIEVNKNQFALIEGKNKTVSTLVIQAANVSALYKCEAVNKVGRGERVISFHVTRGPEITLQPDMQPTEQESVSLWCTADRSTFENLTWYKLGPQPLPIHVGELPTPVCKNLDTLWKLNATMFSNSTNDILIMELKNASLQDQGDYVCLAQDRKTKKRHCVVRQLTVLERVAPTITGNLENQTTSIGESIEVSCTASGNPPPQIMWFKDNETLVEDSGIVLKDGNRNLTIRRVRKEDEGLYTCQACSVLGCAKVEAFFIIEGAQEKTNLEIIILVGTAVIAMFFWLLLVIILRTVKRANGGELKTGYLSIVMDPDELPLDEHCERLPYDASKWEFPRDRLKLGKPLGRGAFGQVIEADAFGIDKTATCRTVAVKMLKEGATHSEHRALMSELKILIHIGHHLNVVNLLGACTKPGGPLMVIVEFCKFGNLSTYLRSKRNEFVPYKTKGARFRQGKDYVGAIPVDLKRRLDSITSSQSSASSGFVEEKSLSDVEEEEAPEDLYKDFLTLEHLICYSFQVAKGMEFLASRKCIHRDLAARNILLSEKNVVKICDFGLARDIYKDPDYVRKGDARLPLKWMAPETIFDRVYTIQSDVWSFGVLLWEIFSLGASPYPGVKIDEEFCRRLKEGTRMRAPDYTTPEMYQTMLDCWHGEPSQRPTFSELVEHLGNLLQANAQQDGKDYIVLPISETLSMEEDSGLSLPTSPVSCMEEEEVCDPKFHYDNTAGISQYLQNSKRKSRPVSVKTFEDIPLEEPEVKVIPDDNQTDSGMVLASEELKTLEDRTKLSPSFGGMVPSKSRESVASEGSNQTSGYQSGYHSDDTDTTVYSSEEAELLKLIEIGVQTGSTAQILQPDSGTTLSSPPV
# Summary of the method: as §2
# T1 sequence (P07948 whole entry, species assumed, the tested form may be a part): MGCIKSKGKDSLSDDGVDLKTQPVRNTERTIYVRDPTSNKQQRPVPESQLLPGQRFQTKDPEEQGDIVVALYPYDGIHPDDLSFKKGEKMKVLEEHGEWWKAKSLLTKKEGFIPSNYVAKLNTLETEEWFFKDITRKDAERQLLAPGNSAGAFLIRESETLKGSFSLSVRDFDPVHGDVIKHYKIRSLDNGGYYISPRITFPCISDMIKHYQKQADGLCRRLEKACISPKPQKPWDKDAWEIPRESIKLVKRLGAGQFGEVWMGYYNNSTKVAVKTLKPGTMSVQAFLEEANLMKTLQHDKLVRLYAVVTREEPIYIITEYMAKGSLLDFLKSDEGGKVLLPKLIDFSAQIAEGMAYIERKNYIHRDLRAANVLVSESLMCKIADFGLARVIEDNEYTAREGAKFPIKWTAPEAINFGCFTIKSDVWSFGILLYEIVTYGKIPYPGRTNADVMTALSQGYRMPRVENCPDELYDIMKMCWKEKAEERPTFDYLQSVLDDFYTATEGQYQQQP
IC50 (Lyn) [µM],IC50 (FGFR1) [µM],IC50 (IGFR-1) [µM],IC50 (Fyn) [µM],IC50 (Hck-1) [µM],IC50 (PDGFRB) [µM],IC50 (Src) [µM],IC50 (Itk) [µM],IC50 (Lck) [µM],IC50 (ErbB2) [µM],IC50 (c-Met) [µM],IC50 (Tek) [µM],IC50 (AKT) [µM],IC50 (Zap-70) [µM],IC50 (ErbB4) [µM],IC50 (EGFR) [µM],IC50 (Ret-1) [µM],IC50 (Flt-1) [µM],IC50 (Kdr) [µM],SMILES
< 0.817,< 0.817,> 9.19,0.817 to 4.9,> 9.19,< 0.817,0.817 to 4.9,> 9.19,< 0.817,0.817 to 4.9,> 9.19,4.9 to 7.15,> 9.19,> 9.19,0.817 to 4.9,0.817 to 4.9,< 0.817,< 0.817,< 0.817,COc1cc(Nc2ncnc(-n3c(NCc4cccs4)nc4ccccc43)n2)cc(OC)c1OC [Compound 950]
4.98 to 7.26,0.829 to 4.98,7.26 to 9.33,> 9.33,> 9.33,< 0.829,> 9.33,> 9.33,0.829 to 4.98,< 0.829,> 9.33,> 9.33,> 9.33,> 9.33,0.829 to 4.98,0.829 to 4.98,0.829 to 4.98,> 9.33,4.98 to 7.26,COc1cc(Nc2ncnc(Nc3ccc(Br)c4ccccc34)n2)cc(OC)c1OC [Compound 613]
> 8.76,0.779 to 4.67,> 8.76,> 8.76,> 8.76,> 8.76,> 8.76,> 8.76,> 8.76,> 8.76,> 8.76,> 8.76,> 8.76,> 8.76,> 8.76,> 8.76,0.779 to 4.67,4.67 to 6.82,< 0.779,COc1ccc(CNc2nc3ccccc3n2-c2ncnc(Nc3cc(OC)c(OC)c(OC)c3)n2)cc1 [Compound 1037]
> 9.04,< 0.804,> 9.04,> 9.04,> 9.04,7.03 to 9.04,> 9.04,> 9.04,4.82 to 7.03,> 9.04,> 9.04,> 9.04,> 9.04,> 9.04,> 9.04,> 9.04,< 0.804,4.82 to 7.03,< 0.804,COc1cc(Nc2ncnc(-n3c(NCc4ccc(C)cc4)nc4ccccc43)n2)cc(OC)c1OC [Compound 516]
< 0.804,< 0.804,> 9.04,< 0.804,> 9.04,< 0.804,0.804 to 4.82,> 9.04,< 0.804,7.03 to 9.04,> 9.04,> 9.04,> 9.04,> 9.04,0.804 to 4.82,4.82 to 7.03,< 0.804,< 0.804,< 0.804,COc1cc(Nc2ncnc(-n3c(N[C@@H](C)c4ccccc4)nc4ccccc43)n2)cc(OC)c1OC [Compound 1033]
< 1.14,> 12.9,> 12.9,> 12.9,> 12.9,1.14 to 6.87,> 12.9,6.87 to 10,< 1.14,> 12.9,6.87 to 10,> 12.9,> 12.9,> 12.9,> 12.9,> 12.9,< 1.14,> 12.9,1.14 to 6.87,CC(C)Nc1ncccc1-c1ncnc(Nc2ccc(C(N)=O)cc2)n1 [Compound 1084]
7.24 to 10.6,1.21 to 7.24,< 1.21,> 13.6,> 13.6,1.21 to 7.24,7.24 to 10.6,1.21 to 7.24,1.21 to 7.24,1.21 to 7.24,1.21 to 7.24,7.24 to 10.6,> 13.6,> 13.6,7.24 to 10.6,1.21 to 7.24,< 1.21,< 1.21,< 1.21,CCc1cccc(Nc2ncnc(-n3c(N)nc4ccccc43)n2)c1 [Compound 655]
> 9.03,0.802 to 4.81,> 9.03,> 9.03,> 9.03,4.81 to 7.02,> 9.03,0.802 to 4.81,0.802 to 4.81,> 9.03,> 9.03,> 9.03,> 9.03,> 9.03,> 9.03,> 9.03,0.802 to 4.81,0.802 to 4.81,< 0.802,COc1cc(Nc2ncnc(-n3c(NCCc4ccccn4)nc4ccccc43)n2)cc(OC)c1OC [Compound 510]
0.867 to 5.2,> 9.75,> 9.75,5.2 to 7.58,> 9.75,> 9.75,> 9.75,> 9.75,> 9.75,0.867 to 5.2,> 9.75,7.58 to 9.75,> 9.75,> 9.75,> 9.75,< 0.867,7.58 to 9.75,> 9.75,7.58 to 9.75,COc1cc(Nc2ncnc(N3CCCc4ccc(C(F)(F)F)cc43)n2)cc(OC)c1OC [Compound 518]
0.772 to 4.63,< 0.772,6.76 to 8.69,> 8.69,> 8.69,< 0.772,> 8.69,> 8.69,< 0.772,> 8.69,6.76 to 8.69,> 8.69,> 8.69,> 8.69,0.772 to 4.63,> 8.69,< 0.772,< 0.772,< 0.772,COc1cc(Nc2ncnc(-n3c(NCc4cccc(Cl)c4)nc4ccccc43)n2)cc(OC)c1OC [Compound 949]
